ChEMBL document CHEMBL6153085, “Discovery of N-(1,2,4-Thiadiazol-5-yl)benzo[b]oxepine-4-carboxamide Derivatives as Novel Antiresistance Androgen Receptor Antagonists” (J Med Chem, 2025)

Tests used:
Androgen receptor = target: T1, Androgen receptor (Homo sapiens, UniProt P10275); test: Antagonist activity at Androgen receptor in human LNCaP cells expressing ARR2PB-eGFP incubated for 3 days by fluorescence based assay
T1 sequence (P10275 whole entry): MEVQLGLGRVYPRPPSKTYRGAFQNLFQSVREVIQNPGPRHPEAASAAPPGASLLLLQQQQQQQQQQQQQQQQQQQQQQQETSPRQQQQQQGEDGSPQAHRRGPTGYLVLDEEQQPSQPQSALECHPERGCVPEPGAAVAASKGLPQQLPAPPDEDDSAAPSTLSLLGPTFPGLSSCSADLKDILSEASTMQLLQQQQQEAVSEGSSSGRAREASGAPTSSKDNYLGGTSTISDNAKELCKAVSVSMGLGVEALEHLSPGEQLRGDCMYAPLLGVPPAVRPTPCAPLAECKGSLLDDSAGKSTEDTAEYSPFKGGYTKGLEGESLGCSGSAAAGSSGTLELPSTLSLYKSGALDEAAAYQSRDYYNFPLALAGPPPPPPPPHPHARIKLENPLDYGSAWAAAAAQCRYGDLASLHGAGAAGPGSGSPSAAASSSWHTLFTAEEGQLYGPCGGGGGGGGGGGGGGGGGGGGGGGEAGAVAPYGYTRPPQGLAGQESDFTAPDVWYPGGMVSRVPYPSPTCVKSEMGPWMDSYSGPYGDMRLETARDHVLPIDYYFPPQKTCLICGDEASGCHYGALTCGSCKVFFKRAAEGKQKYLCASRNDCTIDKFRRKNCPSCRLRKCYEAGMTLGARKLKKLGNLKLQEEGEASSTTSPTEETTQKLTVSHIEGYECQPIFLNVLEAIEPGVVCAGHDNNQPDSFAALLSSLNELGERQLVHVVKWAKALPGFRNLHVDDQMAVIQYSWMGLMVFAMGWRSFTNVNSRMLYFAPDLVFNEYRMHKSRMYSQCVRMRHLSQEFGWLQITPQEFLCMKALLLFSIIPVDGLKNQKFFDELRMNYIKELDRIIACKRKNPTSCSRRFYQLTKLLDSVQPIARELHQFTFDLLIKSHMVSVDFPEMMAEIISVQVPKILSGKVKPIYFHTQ

[1] = Antiproliferative activity against mouse 3T3 cells incubated for 3 days by MTT assay; settings: NIH3T3 cells
[2] = Antiproliferative activity against human LNCaP-EnzR cells assessed as inhibition of cell proliferation incubated for 3 days by MTT assay; settings: 72 h
LNCaP = test: Antiproliferative activity against human LNCaP cells assessed as inhibition of cell proliferation incubated for 3 days by MTT assay; settings: 72 h

IC50 (Androgen receptor) [µM] | IC50 (LNCaP) [µM] | SMILES | IC50 at 3 days [1] [µM] | IC50 [2] [µM]
16 | – | CC(=O)Cc1nsc(NC(=O)/C=C/c2ccc(C(F)(F)F)cc2)n1 | – | –
– | 15.8 | CNC(=O)c1ccc(N2C(=S)N(c3ccc(C#N)c(C(F)(F)F)c3)C(=O)C2(C)C)cc1F [ENZALUTAMIDE] | > 50 | > 50
